Measurements published in paper PMC11599207, “Identification of IspD as a novel target for tuberculosis treatment using compound M6” (Frontiers in Microbiology, 2024).

Molecular target: T1, IspD (2-C-methyl-D-erythritol 4-phosphate cytidylyltransferase) (Mycolicibacterium smegmatis, UniProt A0R560)
T1 construct: recombinant IspD from pET28a-ispD, His trap purified, approximately 26 kDa
T1 sequence (A0R560 1-222): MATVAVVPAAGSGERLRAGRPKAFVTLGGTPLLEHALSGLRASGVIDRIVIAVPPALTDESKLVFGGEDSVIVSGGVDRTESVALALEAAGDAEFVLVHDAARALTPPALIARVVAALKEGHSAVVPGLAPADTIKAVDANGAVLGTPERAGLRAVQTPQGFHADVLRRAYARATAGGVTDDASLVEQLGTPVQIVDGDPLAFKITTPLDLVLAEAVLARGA
Test: ammonium molybdate pyrophosphate absorbance assay; double-reciprocal kinetics
Format: biochemical

Row | Structure (SMILES) | ammonium molybdate pyrophosphate absorbance assay; double-reciprocal kinetics
1 | Nc1ccn([C@@H]2O[C@H](COP(=O)(O)OP(=O)(O)OP(=O)(O)O)[C@@H](O)[C@H]2O)c(=O)n1 [CTP] | M6 acts as a non-competitive inhibitor of the substrate CTP (Figure 3D)
2 | C[C@](O)(CO)[C@H](O)COP(=O)(O)O [MEP, 2-C-methyl-D-erythritol 4-phosphate] | indicating that M6 acts as a non-competitive inhibitor of the substrate MEP
